The text below walks through data of US20250129069A1, “TRIAZOLO WRN INHIBITORS” (Nimbus Wadjet, Inc., priority 2023, published 2025).

The structures appear in SMILES notation. Where two headings read alike, the source gives them in different places.

Experiment [1] has as its target human Werner helicase (WRN, amino acids 517-1235 with L1074F point mutation) (Homo sapiens (Human), UniProt Q14191, L1074F). In words: WRN (BV08) ADP-Glo assay. The class given is biochemical. Conditions: human WRN (aa 517-1235, L1074F), read-out: ADP-Glo_hWRN_IC50. The text has this:
Bovine skin gelatin (BSG), dimethyl sulfoxide (DMSO), Pluronic F-127 and tris(2-carboxyethyl)phosphine hydrochloride solution (TCEP) were purchased from Sigma-Aldrich (St. Louis, MO) at the highest level of purity possible. Bicine buffer solution was purchased from Alfa Aesar (Tewksbury, MA) and compound NSC-617145 was purchased from Tocris (Minneapolis, MN). DNA duplex was synthesized at BGI (Shenzhen, China) and was composed of strand 1 with the sequence 5′-[…]-3′ (SEQ ID NO.: 1) and strand 2 with the sequence 5′-[…]-3′ (SEQ ID NO.: 2). DNA strands were annealed by heating to 95° C. for 5 minutes followed by slow cooling to room temperature. Compounds in 100% DMSO (0.1 μl) were spotted into a 384-well white polystyrene Optiplate-384 (Perkin Elmer; Waltham, MA) assay plate using a LabCyte Echo 550 (Agilent; Santa Clara, CA). DMSO (0.1 μl) was added to columns 12, rows A-H and column 24, rows I-P for the maximum signal control. Compound NSC-617145 (0.1 μl) was added to columns 12, rows I-P and 24, rows A-H for the minimum signal control (100% inhibition). Compounds/DMSO were preincubated for 15 minutes at 25° C. with 5 μl 2×WRN (BV08), prepared as described below, in assay buffer containing 20 mM Bicine (pH=7.5), 1 mM MgCl2, 10 mM KCl, 0.1% Pluronic F-127, 0.005% BSG, 1 mM TCEP. The reaction was initiated by the addition of 5 μl 2× substrate mixture in assay buffer and incubated for 60 minutes at 25° C. The final concentrations of the assay components were 0.15 nM WRN, 5 μM ATP, and 0.1 nM DNA duplex. The final DMSO concentration was 1% and the reference compound concentration (NSC-617145) used for the minimal signal control was 20 μM. The reaction was stopped by the addition of the ADP-Glo Kit components (Promega; Madison, WI) as directed and the relative luminescence units (RLU) were read on an Envision 2104 (Perkin Elmer; Waltham, MA).
% inhibition calculation:
% INH=(RLU MAX−RLU sample)/(RLU MAX−RLU MIN))×100
Where RLU=relative luminescence units, sample=signal in sample well, and MIN and MAX are the respective minimum and maximum signal controls. Four-parameter IC50 fit equation:
Y=Bottom+(Top−Bottom)/(1+(IC50/X)^Hill Slope)
Where top and bottom are normally allowed to float but may be fixed at 100 or 0 respectively in a 3-parameter fit. Y is the % inhibition and X is the compound concentration.
Molecular Biology and virus production. The DNA encoding human Werner helicase (Uniprot Q14191, amino acids 517-1235 with L1074F point mutation) was generated with codon-optimization for E. coli expression and subcloned into the pFastBac vector with a TEV cleavable 8×His tag (WRN—BV08). The baculovirus from the expression plasmid WRN—BV08 was generated from transfection and amplification following the manufacturer's instructions.
Sf9 cells grown in SF900II media were infected with 1:200 WRN—BV08 P2 virus and incubated for protein expression for 72 h at 27° C. The WRN protein was purified using the following protocol. The cell pellets were thawed and resuspended in buffer A (50 mM Tris, pH 7.5, 500 mM NaCl, 1 mM TCEP, 10% Glycerol) supplemented with 0.5% CHAPS, 1 mM PMSF, […] Leupeptin, 1 μg/ml Pepstatin, and the Pierce Universal Nuclease and cocktail tablet. Cleared lysates were loaded onto a Ni Sepharose™ excel column and washed with buffer A and bound protein was eluted with buffer A supplemented with 300 mM imidazole. The eluted protein was dialyzed against buffer A and digested by His-tagged TEV (1:5 ratio) overnight at 4° C. ZnCl2 was added into the sample at final 15 μM before loading onto a second Ni Sepharose™ excel column. Untagged WRN protein was eluted from the column with buffer A supplemented with 20 mM imidazole, dialyzed overnight into buffer B (50 mM Tris, pH 7.5, 1 mM TCEP, 10% Glycerol) supplemented with 150 mM NaCl and loaded onto a Heparin column. Proteins were eluted with a step gradient of buffer B supplemented with 150 mM, 200 mM, 300 mM and 500 mM NaCl. […]
A general note: ADP-Glo turns the ADP formed in a reaction into a luminescent signal.

The test system of experiment [2] is p21 induction in HCT 116 cells. Kind of experiment: p21 induction in cells (In-Cell Western, p21/GAPDH ratio). Conditions: 24 h compound incubation, read-out: p21_EC50. The class given is cell-based. The procedure: The colon carcinoma cell line HCT 116 was obtained from ATCC and cultured in growth medium consisting of Mccoy's 5A Medium (Gibco 16600108) supplemented with 10% FBS (Transgene FS201-02) and 100 units/mL penicillin-streptomycin (Gibco 15140122) and maintained at 37° C. under 5% CO2. On the day of seeding, 2,000 cells in 30 μL of culture media were plated per well to Poly-D-Lysine 384 Well Black Clear Plates (Biocoat 356663) and incubated overnight at 37° C. under 5% CO2. The following day, compounds were serially diluted in DMSO for a total of 11 test concentrations. The typical starting concentration of compounds was 10 μM with 2-fold dilutions. Next, 150 nL of diluted compound was added in duplicate to the assay plate, using an Echo 655 (Labcyte). The plate was centrifuged at 500 RPM for 1 min and then incubated at 37° C. under 5% CO2 for 24 h. After 24 h, medium was removed, and cells were fixed by adding 40 μL of 4% paraformaldehyde solution to each well and incubated for 20 min at room temperature. The plate was then washed 4 times with 100 μL per well of wash buffer (PBS with 0.1% Tween-20) using a microplate washer. Next, 30 μL of ice-cold methanol was added to each well and the plate was incubated at −20° C. for 10 min. The plate was washed 4 times with 100 μL per well of wash buffer by a microplate washer, then 30 μL per well of blocking buffer ((Intercept PBS blocking buffer (LI-COR 927-70001) with 0.05% Tween-20)) was added and the plate was incubated at room temperature with shaking for 2 h. Next, to each test well, 20 μL of primary antibody solution (p21 Wafl/CIP (12D1) RabbitmAb (Cell Signaling Technologies 2947) diluted 1:1000 and GAPDH (D4C6R) Mouse mAb (Cell Signaling Technologies 97166) diluted 1:2000 in blocking buffer) was added and the plate was placed at 4° C., overnight. The following day, the plate was washed 5 times with 100 μL per well of wash buffer using a microplate washer for 5 min. 20 μL per well of secondary antibody (IRDye 680CW Goat anti-Mouse IgG (H+L) (LI-COR 926-68070) diluted 1:2000 in Blocking Buffer and IRDye 800CW Goat anti-Rabbit IgG (H+L) (LI-COR 926-32211) diluted 1:2000 in Blocking Buffer) was then added and the plate was stored for 2 h in the dark at room temperature with shaking. The plate was then washed 4 times with 100 μL per well of wash buffer again using a microplate washer. Finally, the p21 signal and the GAPDH signal were quantified using a LI-COR Odyssey CLx Imager machine reading at 800 nm and 700 nm, respectively. Each plate contained DMSO control (low control) and an internal reference WRN inhibitor (high control) respectively. For quantitation, the 800 nm/700 nm ratio was calculated for each well to give fold p21 induction and then percent activation for each compound well was calculated as follows (100×(ratio cpd well-ratio low control)/(ratio high control−ratio low control). EC50 values for each compound was generated after non-linear regression curve fitting using commercially available software.

Chain of human Werner helicase (WRN, amino acids 517-1235 with L1074F point mutation) (Q14191 other isoform, or with tags, fused parts or gaps L1074F (already in the parent)): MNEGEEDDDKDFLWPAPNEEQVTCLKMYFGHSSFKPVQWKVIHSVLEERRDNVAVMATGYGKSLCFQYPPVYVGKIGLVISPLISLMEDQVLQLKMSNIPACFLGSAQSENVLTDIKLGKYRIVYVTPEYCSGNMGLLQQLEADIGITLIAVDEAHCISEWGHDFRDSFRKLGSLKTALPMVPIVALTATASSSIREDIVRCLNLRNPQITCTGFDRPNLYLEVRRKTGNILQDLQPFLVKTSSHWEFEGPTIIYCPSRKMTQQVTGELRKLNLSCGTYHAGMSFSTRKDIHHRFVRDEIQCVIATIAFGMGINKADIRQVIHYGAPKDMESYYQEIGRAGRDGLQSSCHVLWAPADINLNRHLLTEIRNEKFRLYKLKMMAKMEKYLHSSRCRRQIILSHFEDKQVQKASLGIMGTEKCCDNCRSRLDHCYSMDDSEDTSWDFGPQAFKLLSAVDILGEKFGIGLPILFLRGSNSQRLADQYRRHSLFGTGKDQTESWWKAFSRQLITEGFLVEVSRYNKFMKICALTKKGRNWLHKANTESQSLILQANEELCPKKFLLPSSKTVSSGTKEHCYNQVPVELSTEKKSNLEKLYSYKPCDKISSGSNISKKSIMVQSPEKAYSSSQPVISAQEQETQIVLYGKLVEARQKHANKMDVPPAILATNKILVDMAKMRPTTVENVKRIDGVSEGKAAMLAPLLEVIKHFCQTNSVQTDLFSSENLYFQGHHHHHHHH

Turning to `CCc1c(N2CCN(C(=O)c3[nH]cnc3C#N)[C@H]3CC[C@@H]32)c(=O)c2nn(C3=CCOCC3)nc2n1CC(=O)NC12CC(C(C)C)(C1)C2` [Compound I-170, 2-{6-[(1S,6S)-5-(4-cyano-1H-imidazole-5-carbonyl)-2,5-diazabicyclo[4.2.0]octan-2-yl]-2-(3,6-dihydro-2H-pyran-4-yl)-5-ethyl-7-oxo-2H,4H,7H-[1,2,3]triazolo[4,5-b]pyridin-4-yl}-N-[3-(propan-2-yl)bicyclo[1.1.1]pentan-1-yl]acetamide], the IC50 in experiment [1] was in the range of 0.005 to 0.05 µM. For the same compound, the EC50 in experiment [2] (Homo sapiens) is above 5 µM.

As to `CCc1c(N2CCN(C(=O)c3ncncc3OC)[C@H]3CC[C@@H]32)c(=O)c2nn(C3=CCOCC3)nc2n1CC(=O)NC12CC(C(C)C)(C1)C2` [Compound I-167, 2-[2-(3,6-dihydro-2H-pyran-4-yl)-5-ethyl-6-[(1S,6S)-5-(5-methoxypyrimidine-4-carbonyl)-2,5-diazabicyclo[4.2.0]octan-2-yl]-7-oxo-2H,4H,7H-[1,2,3]triazolo[4,5-b]pyridin-4-yl]-N-[3-(propan-2-yl)bicyclo[1.1.1]pentan-1-yl]acetamide], in experiment [1], the IC50 is 0.005 to 0.05 µM. In addition, the EC50 in experiment [2] (Homo sapiens) was 0.5 to 2 µM.

Consider `CCc1c(N2CCN(C(=O)c3ncnc(C)c3O)CC2)c(=O)c2nn(-c3ccnc(OC)c3)nc2n1CC(=O)NC1CC2(CCC2)C1` [Compound I-118, 2-{5-ethyl-6-[4-(5-hydroxy-6-methylpyrimidine-4-carbonyl)piperazin-1-yl]-2-(2-methoxypyridin-4-yl)-7-oxo-2H,4H,7H-[1,2,3]triazolo[4,5-b]pyridin-4-yl}-N-{spiro[3.3]heptan-2-yl}acetamide], for which the IC50 in experiment [1] fell in the range of 0.005 to 0.05 µM. Moreover, in experiment [2] (Homo sapiens), the EC50 was 0.5 to 2 µM.

Regarding `CCc1c(N2CCN(C(=O)c3c(OC)ncc(C)c3O)[C@H]3CC[C@@H]32)c(=O)c2nn(-c3ccnc(C)c3)nc2n1CC(=O)Nc1ccc(C(F)(F)F)cc1F` [Compound I-95, 2-{5-ethyl-6-[(1S,6S)-5-(4-hydroxy-2-methoxy-5-methylpyridine-3-carbonyl)-2,5-diazabicyclo[4.2.0]octan-2-yl]-2-(2-methylpyridin-4-yl)-7-oxo-2H,4H,7H-[1,2,3]triazolo[4,5-b]pyridin-4-yl}-N-[2-fluoro-4-(trifluoromethyl)phenyl]acetamide], the IC50 in experiment [1] was at most 0.005 µM. For the same compound, in experiment [2] (Homo sapiens), the EC50 is at most 0.5 µM.

Take `CCOc1ncc(C)c(O)c1C(=O)N1CCN(c2c(CC)n(CC(=O)NC34CC(C(C)C)(C3)C4)c3nn(-c4ccnc(OC)c4)nc3c2=O)CC1` [Compound I-98, 2-{6-[4-(2-ethoxy-4-hydroxy-5-methylpyridine-3-carbonyl)piperazin-1-yl]-5-ethyl-2-(2-methoxypyridin-4-yl)-7-oxo-2H,4H,7H-[1,2,3]triazolo[4,5-b]pyridin-4-yl}-N-[3-(propan-2-yl)bicyclo[1.1.1]pentan-1-yl]acetamide]: the IC50 in experiment [1] was in the range of 0.005 to 0.05 µM. In addition, the EC50 in experiment [2] (Homo sapiens) was at most 0.5 µM.

As to `CCc1c(N2CCN(C(=O)c3c(OC)ncc(C)c3O)[C@H]3CC[C@@H]32)c(=O)c2nn(-c3ccnc(OC)c3)nc2n1CC(=O)NC12CC(C(C)C)(C1)C2` [Compound I-17, 2-(5-ethyl-6-((1S,6S)-5-(4-hydroxy-2-methoxy-5-methylnicotinoyl)-2,5-diazabicyclo[4.2.0]octan-2-yl)-2-(2-methoxypyridin-4-yl)-7-oxo-2,7-dihydro-4H-[1,2,3]triazolo[4,5-b]pyridin-4-yl)-N-(3-isopropylbicyclo[1.1.1]pentan-1-yl)acetamide], the IC50 in experiment [1] is 0.005 to 0.05 µM. Also, the EC50 in experiment [2] was at most 0.5 µM.

For the compound `CCc1c(N2CCN(C(=O)c3ncc4c(c3O)OCC4)CC2)c(=O)c2nn(C3=CCOCC3)nc2n1CC(=O)Nc1ccc(C(F)(F)F)cc1Cl` [Compound I-109, N-[2-chloro-4-(trifluoromethyl)phenyl]-2-[2-(3,6-dihydro-2H-pyran-4-yl)-5-ethyl-6-(4-{7-hydroxy-2H,3H-furo[3,2-c]pyridine-6-carbonyl}piperazin-1-yl)-7-oxo-2H,4H,7H-[1,2,3]triazolo[4,5-b]pyridin-4-yl]acetamide], the IC50 in experiment [1] is at most 0.005 µM. For the same compound, the EC50 in experiment [2] (Homo sapiens) is at most 0.5 µM.

For the compound `CCc1c(N2CCN(C(=O)c3ncnc(C)c3O)CC2)c(=O)c2nn(C3=CCOCC3)nc2n1CC(=O)Nc1ccc(C(F)(F)F)cc1Cl` [Compound I-13, N-(2-chloro-4-(trifluoromethyl)phenyl)-2-(2-(3,6-dihydro-2H-pyran-4-yl)-5-ethyl-6-(4-(5-hydroxy-6-methylpyrimidine-4-carbonyl)piperazin-1-yl)-7-oxo-2,7-dihydro-4H-[1,2,3]triazolo[4,5-b]pyridin-4-yl)acetamide], the IC50 in experiment [1] was 0.005 to 0.05 µM.
